Measured values from patent US20150374673A1, “Combination Therapy for the Treatment of Nosocomial Pneumonia” (priority 2013, published 2015).
Like-named read-outs stand apart in the source and are kept apart here.

Experiments:
[1] = test system: Gram-positive or Gram-negative bacterial strains; assay: MIC in pulmonary surfactant compared with CAMHB alone, whole strain panel; format: cell-based; conditions: up to 10% pulmonary surfactant vs CAMHB alone; any strain tested
Experimental: (§1) The bacterial strains used in this testing were part of the microbiological culture collection housed at AstraZeneca R&D Boston (AstraZeneca Research Collection, designated ARC). The panel of bacterial isolates used for this testing was comprised of five CLSI QC reference strains and the remainder were either recent clinical isolates expressing β-lactamases or isolates from the primary bacterial screening panels.
(§2) MIC values were determined using the CLSI broth microdilution methodology with slight variation. Stock compound mother plates were prepared and used to spot 2 μL aliquots of serial 2-fold drug dilutions to columns 1-11 of 96-well daughter plates using a Perkin-Elmer MiniTrak™ MultiPosition dispenser. […] An inoculum volume of 100 μL (5×10E^5 CFU/mL) in CAMHB containing 0, 1, 2.5, 5, or 10% pulmonary surfactant was added using a multichannel Finnpipette® to each well of the 96-well plate.
The minimum inhibitory concentration (MIC) values against each organism/drug combination were determined using broth microdilution methodology according to CLSI guidelines. The recommended reference bacterial strains for each test group and reference compounds were incorporated into each test. […]
MIC values for individual isolates were read visually. […]

P. aeruginosa [2] = assay: Neutropenic thigh infection model (CD-1 mice), exposure response of ceftazidime q2h and avibactam; format: in vivo, Pseudomonas aeruginosa; conditions: for % fT>CT required to support a bacteriostatic effect: CT 1 mg/L; for Emax model maximum / Emax model minimum: ceftazidime q2h and avibactam q2h, SE between brackets; for % fT > CT1 of avibactam associated with 24-h stasis: CT1 = threshold concentration of 1 mg/L
Experimental: CD-1 neutropenic mice were infected with appr. 10^6 cfu β-lactamase-producing P. aeruginosa strains in the thigh.
Outbred female CD-1 mice (Charles River, Netherlands), 4 to 5 weeks old, weighing 20 to 25 g were used in the experiments. Granulocytopenia was induced by two doses of cyclophosphamide s.c.: one at four days (150 mg/kg) and the other at one day (100 mg/kg) before the infection experiment.
The neutropenic mice were infected with 2 P. aeruginosa strains per animal, one in the left and one in the right thigh. 0.05 mL of bacterial suspension consisting of approximately 10^5-10^6 bacteria was inoculated intramuscularly. […] All dosing regimens were performed in at least two animals. At t=0 h, 2 mice were humanely sacrificed to determine the initial inoculum just before treatment. All other animals were sacrificed at t=24 h unless the welfare of the animals indicated earlier termination was necessary, following animal welfare regulations. Thighs were taken and moved to a pre-cooled 10-mL plastic tube (Transport Tube, Omnilabo, NL) ? containing 2 mL phosphate buffered saline (PBS; NaCl 8.00 g/L, Na2HPO42H2 1.44 g/L, KH2PO4 0.26 g/L, pH 7.2-7.4). Subsequently thighs were ground using an Ultra-Turrax (IKA Labortechnik, Germany). A tenfold dilution series was prepared and 3×10 μL plated (Chromagar, Biomerieux, NL) per dilution. The following day, colonies were counted and the number of cfu per thigh calculated. The drug effect was then determined as the difference between the log10[cfu/thigh] values at t=24 h and t=0 h (mean value of 2 mice) expressed as “dcfu”.
The amount of avibactam administered varied in frequency and dose. […] The drug effect was determined as the difference between the log10 [cfu/thigh] values at t=24 h and t=0 h (mean value of 2 mice) expressed as dcfu. Free drug concentrations were used in all calculations. […] Oral presentation at the ? 52nd Interscience Conference on Antimicrobial Agents and Chemotherapy, San Francisco, Calif. Abstract #A-1760).

S. aureus = assay: MIC, CLSI broth microdilution in CAMHB with 0-10% pulmonary surfactant (avibactam fixed at 4 μg/mL in combination); format: cell-based, Staphylococcus aureus
Experimental: as §1, §2
(§3) The minimum inhibitory concentration (MIC) values against each organism/drug combination were determined using broth microdilution methodology according to CLSI guidelines. The recommended reference bacterial strains for each test group and reference compounds were incorporated into each test. For Gram-negatives, the reference bacterial strains were Escherichia coli ATCC 25922, E. coli ATCC 35218, Klebsiella pneumoniae ATCC 700603, and Pseudomonas aeruginosa ATCC 27853. Staphylococcus aureus ATCC 29213 was the reference bacterial strain for the Gram-positives.
(§4) MIC values for individual isolates were read visually. The MICs for each compound or combination in pulmonary surfactant was compared to the compound or combination tested in CAMHB alone.

P. aeruginosa [3] = assay: as above; format: cell-based, Pseudomonas aeruginosa
Experimental: as §1, §2, §3, §4

[4] = 6 P. aeruginosa strains, with fixed ceftazidime q2h, thigh
[5] = strain 1, thigh infection, Dose CAZ 32 mg/kg
[6] = strain 5, thigh infection, Dose CAZ 64 mg/kg
[7] = strain 7, thigh infection, Dose CAZ 64 mg/kg
[8] = strain 11, thigh infection, Dose CAZ 64 mg/kg
[9] = strain 18, thigh infection, Dose CAZ 64 mg/kg
[10] = strain 19, thigh infection, Dose CAZ 32 mg/kg

NC(=O)[C@@H]1CC[C@@H]2CN1C(=O)N2OS(=O)(=O)[O-].[Na+] [avibactam, [(2S,5R)-2-carbamoyl-7-oxo-1,6-diazabicyclo[3.2.1]octan-6-yl]hydrogen sulfate]
MIC increase in pulmonary surfactant [1]: no MIC increases were observed | mean % fT>CT 1 mg/L for static effect (P. aeruginosa [2]; [4]): 36.3% | range of % fT>CT 1 mg/L for static effect (P. aeruginosa [2]; [4]): 14.1-62.5 | % fT>CT required to support a bacteriostatic effect (P. aeruginosa [2]; strain 7, thigh): 30.2 | % fT>CT required to support a bacteriostatic effect (P. aeruginosa [2]; strain 18, thigh): 74.1 | % fT>CT required for static effect (P. aeruginosa [2]; CT of 1 mg/L, dose fractionation studies, 2 strains, with ceftazidime q2h, thigh): 30.2-74.1 | % fT > CT1 of avibactam associated with 24-h stasis, mean (P. aeruginosa [2]; mean of 6 strains (sd 17.8), thigh infection, CT1 = 1 mg/L): 36.3% | Emax model maximum (P. aeruginosa [2]; strain 1): 1.26 | Emax model minimum (P. aeruginosa [2]; strain 1): ≈′−727.5 | TDD AVI associated with 24-h stasis (P. aeruginosa [2]; [5]): 123.70 mg/kg | log TDD AVI associated with 24-h stasis (P. aeruginosa [2]; [5]): 2.09 | % fT > CT1 of avibactam associated with 24-h stasis (P. aeruginosa [2]; [5]): 37.2% | Emax model maximum (P. aeruginosa [2]; strain 5): ≈0.70 | Emax model minimum (P. aeruginosa [2]; strain 5): −3.25 (0.95) | TDD AVI associated with 24-h stasis (P. aeruginosa [2]; [6]): 33.59 mg/kg | log TDD AVI associated with 24-h stasis (P. aeruginosa [2]; [6]): 1.53 | % fT > CT1 of avibactam associated with 24-h stasis (P. aeruginosa [2]; [6]): 14.1% | Emax model maximum (P. aeruginosa [2]; strain 7): 1.81 (0.29) | Emax model minimum (P. aeruginosa [2]; strain 7): −2.83 (1.41) | TDD AVI associated with 24-h stasis (P. aeruginosa [2]; [7]): 267.47 mg/kg | log TDD AVI associated with 24-h stasis (P. aeruginosa [2]; [7]): 2.43 | % fT > CT1 of avibactam associated with 24-h stasis (P. aeruginosa [2]; [7]): 50.4% | Emax model maximum (P. aeruginosa [2]; strain 11): 1.40 (0.50) | Emax model minimum (P. aeruginosa [2]; strain 11): −2.95 (0.41) | TDD AVI associated with 24-h stasis (P. aeruginosa [2]; [8]): 77.88 mg/kg | log TDD AVI associated with 24-h stasis (P. aeruginosa [2]; [8]): 1.89 | % fT > CT1 of avibactam associated with 24-h stasis (P. aeruginosa [2]; [8]): 29.1% | Emax model maximum (P. aeruginosa [2]; strain 18): 0.83 (0.36) | Emax model minimum (P. aeruginosa [2]; strain 18): −2.36 (0.23) | TDD AVI associated with 24-h stasis (P. aeruginosa [2]; [9]): 58.91 mg/kg | log TDD AVI associated with 24-h stasis (P. aeruginosa [2]; [9]): 1.77 | % fT > CT1 of avibactam associated with 24-h stasis (P. aeruginosa [2]; [9]): 24.2% | Emax model maximum (P. aeruginosa [2]; strain 19): 2.46 (0.22) | Emax model minimum (P. aeruginosa [2]; strain 19): −1.42 (0.46) | TDD AVI associated with 24-h stasis (P. aeruginosa [2]; [10]): 541.34 mg/kg | log TDD AVI associated with 24-h stasis (P. aeruginosa [2]; [10]): 2.73 | % fT > CT1 of avibactam associated with 24-h stasis (P. aeruginosa [2]; [10]): 62.5% | effect on ceftazidime static % fT>MIC (P. aeruginosa [2]; thigh infection, all strains): reduced | MIC (S. aureus; S. aureus ARC12 (CLSI QC strain, ATCC 29213), surfactant 0%): >64 µg/mL | MIC (S. aureus; S. aureus ARC12 (CLSI QC strain, ATCC 29213), surfactant 1%): >64 µg/mL | MIC (S. aureus; S. aureus ARC12 (CLSI QC strain, ATCC 29213), surfactant 2.5%): >64 µg/mL | MIC (S. aureus; S. aureus ARC12 (CLSI QC strain, ATCC 29213), surfactant 5%): >64 µg/mL | MIC (S. aureus; S. aureus ARC12 (CLSI QC strain, ATCC 29213), surfactant 10%): >64 µg/mL | MIC (S. aureus; S. aureus ARC516 (MRSA, quinolone-resistant), surfactant 0%): >64 µg/mL | MIC (S. aureus; S. aureus ARC516 (MRSA, quinolone-resistant), surfactant 1%): >64 µg/mL | MIC (S. aureus; S. aureus ARC516 (MRSA, quinolone-resistant), surfactant 2.5%): >64 µg/mL | MIC (S. aureus; S. aureus ARC516 (MRSA, quinolone-resistant), surfactant 5%): >64 µg/mL | MIC (S. aureus; S. aureus ARC516 (MRSA, quinolone-resistant), surfactant 10%): >64 µg/mL | MIC (P. aeruginosa [3]; P. aeruginosa ARC3 (CLSI QC strain, ATCC 27853), surfactant 1%): >64 µg/mL | MIC (P. aeruginosa [3]; P. aeruginosa ARC3 (CLSI QC strain, ATCC 27853), surfactant 2.5%): >64 µg/mL | MIC (P. aeruginosa [3]; P. aeruginosa ARC3 (CLSI QC strain, ATCC 27853), surfactant 5%): >64 µg/mL | MIC (P. aeruginosa [3]; P. aeruginosa ARC3 (CLSI QC strain, ATCC 27853), surfactant 10%): >64 µg/mL | MIC (P. aeruginosa [3]; P. aeruginosa ARC545 (PAO1), surfactant 1%): >64 µg/mL | MIC (P. aeruginosa [3]; P. aeruginosa ARC545 (PAO1), surfactant 2.5%): >64 µg/mL | MIC (P. aeruginosa [3]; P. aeruginosa ARC545 (PAO1), surfactant 5%): >64 µg/mL | MIC (P. aeruginosa [3]; P. aeruginosa ARC545 (PAO1), surfactant 10%): >64 µg/mL | MIC (P. aeruginosa [3]; P. aeruginosa ARC2532 (Clinical isolate), surfactant 0%): >64 µg/mL | MIC (P. aeruginosa [3]; P. aeruginosa ARC2532 (Clinical isolate), surfactant 1%): >64 µg/mL | MIC (P. aeruginosa [3]; P. aeruginosa ARC2532 (Clinical isolate), surfactant 2.5%): >64 µg/mL | MIC (P. aeruginosa [3]; P. aeruginosa ARC2532 (Clinical isolate), surfactant 5%): >64 µg/mL | MIC (P. aeruginosa [3]; P. aeruginosa ARC2532 (Clinical isolate), surfactant 10%): >64 µg/mL | MIC (P. aeruginosa [3]; P. aeruginosa ARC2761 (Clinical isolate), surfactant 1%): >64 µg/mL | MIC (P. aeruginosa [3]; P. aeruginosa ARC2761 (Clinical isolate), surfactant 2.5%): >64 µg/mL | MIC (P. aeruginosa [3]; P. aeruginosa ARC2761 (Clinical isolate), surfactant 5%): >64 µg/mL | MIC (P. aeruginosa [3]; P. aeruginosa ARC2761 (Clinical isolate), surfactant 10%): >64 µg/mL | MIC (P. aeruginosa [3]; P. aeruginosa ARC3508 (derepressed AmpC), surfactant 0%): >64 µg/mL | MIC (P. aeruginosa [3]; P. aeruginosa ARC3508 (derepressed AmpC), surfactant 1%): >64 µg/mL | MIC (P. aeruginosa [3]; P. aeruginosa ARC3508 (derepressed AmpC), surfactant 2.5%): >64 µg/mL | MIC (P. aeruginosa [3]; P. aeruginosa ARC3508 (derepressed AmpC), surfactant 5%): >64 µg/mL | MIC (P. aeruginosa [3]; P. aeruginosa ARC3508 (derepressed AmpC), surfactant 10%): >64 µg/mL | MIC (P. aeruginosa [3]; Pseudomonas aeruginosa, ATCC27853, P. aeruginosa ARC3 (CLSI QC strain, ATCC 27853), surfactant 0%, read-out: MIC): > 64 µg/mL | MIC (P. aeruginosa [3]; Pseudomonas aeruginosa, P. aeruginosa ARC545 (PAO1), surfactant 0%, read-out: MIC): > 64 µg/mL | MIC (P. aeruginosa [3]; Pseudomonas aeruginosa, P. aeruginosa ARC2761 (Clinical isolate), surfactant 0%, read-out: MIC): > 64 µg/mL
